Test system: EAE (experimental autoimmune encephalomyelitis)
Assay: EAE semi-therapeutic vaccine study (clinical score, EAE-free mice)
Assay type: in vivo, C57BL/6 mice
Conditions: intravenous injection on days 4, 7 and 10 after EAE induction (semi-therapeutics)
Method: EAE was induced in female C57BL/6 mice aged 10-11 weeks using a kit (EK-2110) from Hooke Laboratory (Lawrence, Mass., USA). Briefly, on day 0, mice were subcutaneously injected with an emulsion containing MOG35-55 peptide and complete Freund's adjuvant (CFA), in the lower and upper back. After 2 and 24 h, the animals were intraperitoneally injected with pertussis toxin (PTX) according to the manufacturer's instructions. EAE clinical score was evaluated after day 8, post-EAE induction based on the standard protocol in a blinded manner (0, no obvious symptoms; 0.5, tip of tail was limp; 1, limp tail; 1.5, limp tail and hind leg inhibition; 2, limp tail and weakness of hind legs; 2.5, limp tail and dragging of hind legs; 3, complete paralysis of hind legs; 3.5, complete paralysis of hind legs and hind legs together on one side of the body; 4, full hind leg and partial front leg paralysis; 4.5 full hind leg and partial front leg paralysis, no movement). Paralyzed mice were given easier access to water and food. Mice were euthanized if any of the following conditions were observed unable to eat, unresponsive when scored as 4, when scored as 4 for two consecutive days, both hind limbs and forelimbs were completely paralyzed. […]

myelin oligodendrocyte glycoprotein (MOG) peptide 35-55 [soluble MOG]
EAE progression / development (clinical score): slightly delayed EAE progression
